Tests used:
INS-1 cells [1] = format: cell-based, rat; conditions: FIG. 5A/5B; for ACBPS-induced insulin release: ACBPS 10 Hz, 25 V; for basal insulin release: mock stimulation
Experimental: A rat insulinoma cell line INS-1 was obtained and were grown in 6-well polystyrene culture plates as attached monolayers in RPMI1640 culture medium supplemented with 10% fetal bovine serum, 10 mM HEPES, 1 mM sodium pyruvate, 2 mM L-glutamine, 0.05 mM 2-mercaptoethanol, 100 IU/mL penicillin and 100 μg/mL streptomycin (i.e., complete medium). Cells were maintained and experiments were conducted in a humidified atmosphere of 5% CO2 in air at 37° C. Select studies were carried out in glucose-free RPMI1640 culture medium supplemented with reagents as described above. In these experiments, the regular medium was exchanged for glucose-free medium 16 hours prior to the electrical stimulation experiment.
ACBPS was applied to cells using a C-Pace EP cell culture stimulator in combination with a C-dish electrode array for a 6-well plate. Control cells were mock stimulated using an identical 6-well C-dish electrode array that was not connected to the stimulator. Unless otherwise stated, the biphasic stimulation parameters were anodal followed by cathodal at 10 Hz (frequency), 5 milliseconds (ms) (total pulse duration), and 25 V (pulse magnitude).
Insulin release from INS-1 cells into the culture medium was determined by ELISA (Rat Insulin ELISA Kit) per the manufacturer's instructions. For these studies, cells were grown to approximately 95% confluency in 6-well plates containing 3 mL complete medium/well. 16 hours before stimulation, the medium was replaced with 3 mL fresh complete medium. Immediately prior to stimulation, the medium was aspirated, the cells were washed twice with 2 mL phosphate buffered saline (PBS), and then 3 mL fresh complete medium was added to each well. Cells were subjected to ACBPS (10 Hz, (2.5 ms)/(2.5 ms) pulse duration (i.e. anodal duration/cathodal duration), 10-25 V magnitude) or mock stimulation for the indicated times. At the end of the stimulation periods, a 0.5 mL sample of medium was removed from each well and stored frozen at −70° C. for later analysis. In some studies, cells were grown for 16 hours in glucose-free medium prior to stimulation. To examine a role for electrolysis products in promoting insulin release, an additional series of experiments were conducted that involved the application of ACBPS (10 Hz, (2.5 ms)/(2.5 ms) pulse duration, 25 V magnitude) or no stimulation (mock) for 30 min to 6-well plates containing only complete medium (3 mL per well) (i.e., no cells). At the end of the stimulation period, the “pre-stimulated” medium was transferred to cells that had been washed twice with PBS (as above). The cells were allowed to incubate with the pre-stimulated medium for 30 min, after which a 0.5 mL sample of medium was removed from each well and stored frozen at −70° C. for latter analysis. The insulin concentration of the culture medium was measured by colorimetric ELISA using 2 μL of the culture medium as described by the manufacturer. Culture medium samples and insulin standards were allowed to bind for 16 hours at 4° C.

INS-1 cells [2] = experiment: Transmembrane potential assay by DiBAC4(3) staining; format: cell-based, rat; conditions: 30 min in staining buffer with 5 μM DiBAC4(3), valinomycin 100 nM, gramicidin 100 nM, KCl 140 mM, FIG. 8A
Experimental: The transmembrane potential (TMP) was estimated using DiBAC4(3) staining as previously described. For these studies, INS-1 cells were grown to 95% confluency in 6-well plates. The medium was aspirated, replaced with 3 mL fresh complete medium per well, and subjected to mock stimulation or ACBPS (10 Hz, (2.5 ms)/(2.5 ms) pulse duration, 25 V magnitude) for 30 min. Immediately following the stimulation period, the medium was aspirated from each well and replaced with 2 mL per well staining buffer (20 mM HEPES, 120 mM NaCl, 2 mM KCl, 2 mM CaCl2), 1 mM MgCl2, and 5 mM glucose [pH 7.4]) containing 5 μM DiBAC4(3) with DMSO (mock and ACBPS), valinomycin (100 nM), gramicidin (100 nM) or KCl (140 mM). The cells were allowed to incubate in staining buffer at 37° C. for 30 min. Thereafter, the fluorescence intensity of DiBAC4(3) stained INS-1 cells (Ex 490 nm/Em 516 nm) was measured using a BioTek Synergy H1 plate reader programmed to acquire 49 (7×7) individual measurements per well.

Row | Molecule | ACBPS-induced insulin release (INS-1 cells [1]) | basal insulin release (INS-1 cells [1]) | DiBAC4(3) fluorescence (INS-1 cells [2])
1 | CC[C@@H]1/C=C/C=C/C[C@H](C)[C@H](O)[C@](C)(O)C(=O)[C@H](C)[C@@H](O)[C@H](C)C(=O)[C@H](C)[C@@H](O)[C@H](C)/C=C/C(=O)O[C@H]2[C@@H](C)[C@@H](CC1)O[C@@]1(CC[C@@H](C)[C@@H](C[C@H](C)O)O1)[C@@H]2C [oligomycin A] | inhibited | inhibited | –
2 | COc1ccc(CCN(C)CCCC(C#N)(c2ccc(OC)c(OC)c2)C(C)C)cc1OC (centres unmarked) [verapamil] | – | inhibited | –
3 | CC(C)[C@@H]1NC(=O)[C@H](C)OC(=O)[C@@H](C(C)C)NC(=O)[C@@H](C(C)C)OC(=O)[C@H](C(C)C)NC(=O)[C@H](C)OC(=O)[C@@H](C(C)C)NC(=O)[C@@H](C(C)C)OC(=O)[C@H](C(C)C)NC(=O)[C@H](C)OC(=O)[C@@H](C(C)C)NC(=O)[C@@H](C(C)C)OC1=O [valinomycin] | – | – | decrease
4 | Antimycin A | inhibited | inhibited | –
5 | [Cl-].[K+] [KCl] | – | – | increased
6 | gramicidin A | – | – | increased

From patent publication US12508431B2, “Method and apparatus for electrical current therapy of biological tissue and insulin release therefrom” (ROCKY MOUNTAIN BIPHASIC, INC., priority 2019, dated 2025)
